Experimental data: ChEMBL document CHEMBL4257529, “Antifungal amphiphilic kanamycins: new life for an old drug” (Medchemcomm, 2018)
In brackets after ≈: the same amount, converted by molar mass.

Legend:
Assay type in all cases: functional
Fusarium graminearum [1] = test: Antifungal activity against Fusarium graminearum by microbroth dilution assay
Pseudomonas aeruginosa = test: Antibacterial activity against Pseudomonas aeruginosa ATCC 27853 by microbroth dilution assay
Saccharomyces cerevisiae = test: Antifungal activity against Saccharomyces cerevisiae W303 by microbroth dilution assay
Enterococcus faecalis = test: Antibacterial activity against Enterococcus faecalis ATCC 29212 by microbroth dilution assay
Staphylococcus aureus [2] = test: Antibacterial activity against Staphylococcus aureus ATCC 25923 by microbroth dilution assay
Fusarium oxysporum = test: Antifungal activity against Fusarium oxysporum by microbroth dilution assay
Klebsiella pneumoniae [3] = test: Antibacterial activity against Klebsiella pneumoniae […] by microbroth dilution assay
Rhodotorula mucilaginosa = test: Antifungal activity against Rhodotorula pilimanae by microbroth dilution assay
Candida albicans = test: Antifungal activity against Candida albicans by microbroth dilution assay
Escherichia coli [4] = test: Antibacterial activity against Escherichia coli TG1 by microbroth dilution assay
Klebsiella pneumoniae [5] = test: Antibacterial activity against Klebsiella pneumoniae ATCC 700603 by microbroth dilution assay
Aspergillus flavus = test: Antifungal activity against Aspergillus flavus after 12 to 18 hrs
Escherichia coli [6] = test: Antibacterial activity against Escherichia coli ATCC 25922 after 12 to 18 hrs
Fusarium graminearum [7] = test: Antifungal activity against Fusarium graminearum after 12 to 18 hrs
Staphylococcus aureus [8] = test: Antibacterial activity against Staphylococcus aureus ATCC 25923 after 12 to 18 hrs

Row | SMILES | MIC (Fusarium graminearum [1]) | MIC (Aspergillus flavus) | MIC (Escherichia coli [6]) | MIC (Fusarium graminearum [7]) | MIC (Staphylococcus aureus [8]) | further results
1 | CCCCCCCCO[C@H]1[C@H](O)[C@@H](N)[C@@H](O[C@H]2[C@H](O)[C@@H](O[C@H]3O[C@H](CO)[C@@H](O)[C@H](O)[C@H]3O)[C@H](N)C[C@@H]2N)O[C@@H]1CN | > 500 µg/mL | – | – | – | – | –
2 | CCCCCCCCO[C@@H]1[C@@H](O[C@H]2O[C@H](CO)[C@@H](O)[C@H](O)[C@H]2O)[C@H](N)C[C@H](N)[C@H]1O[C@H]1O[C@H](CN)[C@@H](O)[C@H](O)[C@H]1N | > 500 µg/mL | – | – | – | – | –
3 | NC[C@H]1O[C@H](O[C@H]2[C@H](O)[C@@H](O[C@H]3O[C@H](CO)[C@@H](O)[C@H](N)[C@H]3O)[C@H](N)C[C@@H]2N)[C@H](N)[C@@H](O)[C@@H]1O [BEKANAMYCIN] | > 250 µg/mL | – | – | – | – | MIC (Pseudomonas aeruginosa): 1.95 µg/mL (≈ 4.03 µM); MIC (Saccharomyces cerevisiae): > 250 µg/mL; MIC (Enterococcus faecalis): < 0.98 µg/mL; MIC (Staphylococcus aureus [2]): < 0.98 µg/mL; MIC (Fusarium oxysporum): > 250 µg/mL; MIC (Klebsiella pneumoniae [3]): 1.95 µg/mL (≈ 4.03 µM); MIC (Rhodotorula mucilaginosa): > 250 µg/mL; MIC (Candida albicans): > 250 µg/mL; MIC (Escherichia coli [4]): 1.95 µg/mL (≈ 4.03 µM); MIC (Klebsiella pneumoniae [5]): 1.95 µg/mL (≈ 4.03 µM)
4 | CCCCCCCCCOC[C@H]1O[C@H](O[C@@H]2[C@@H](O)[C@H](O[C@H]3O[C@H](CN)[C@@H](O)[C@H](O)[C@H]3O)[C@@H](N)C[C@H]2N)[C@H](O)[C@@H](N)[C@@H]1OCCCCCCCCC | – | 500 µg/mL (≈ 678 µM) | 16 µg/mL (≈ 21.7 µM) | 125 µg/mL (≈ 170 µM) | 8 µg/mL (≈ 10.9 µM) | –
5 | CCCCCCOC[C@@H]1O[C@@H](O[C@@H]2[C@@H](O)[C@H](O[C@@H]3O[C@@H](CN)[C@H](O)[C@@H](O)[C@@H]3N)[C@@H](N)C[C@H]2N)[C@@H](O)[C@H](O)[C@H]1O (stereo in doubt) | 125 µg/mL (≈ 220 µM) | – | – | – | – | –
6 | CCCCO[C@H]1[C@H](N)[C@@H](O)[C@@H](O[C@@H]2[C@@H](O)[C@H](O[C@H]3O[C@H](CN)[C@@H](O)[C@H](O)[C@H]3O)[C@@H](N)C[C@H]2N)O[C@@H]1CO | – | > 500 µg/mL | ≥ 250 µg/mL | ≥ 500 µg/mL | 125 µg/mL (≈ 231 µM) | –
